One series deals with female CD-1 mice. The experiment in a line: Catalepsy bar test. It counts as in vivo. The settings on record: 200 mg/kg IP, 90 min after dosing.
Series [1] is described as follows: clogP calculated with ChemAxon Marvin Sketch. Conditions: 78 vs Sulfadiazine.
A short description of a further series: physchem. The settings on record: pH 7.4, […].

Consider four compounds from publication PMC11779965 (Nature Communications, 2025).

One may read the logD as lipophilicity at a set pH, counting ionised and neutral species.

`CCN(CC)CCNC(=O)c1cc(S(C)(=O)=O)cnc1OC` [Compound 79]: the “Catalepsy score compared to Vehicle-treated group (in words)” value in the series on female CD-1 mice is listed as “remained at the level of the Control Vehicle-treated group”.

As to `CS(=O)(=O)c1cnc(NS(=O)(=O)c2ccc(N)cc2)nc1.Cl` [Compound 78], the “Decrease of lipophilicity on replacement of H with MeSO2” value in series [1] is “ca. 1.2 clogP units”. In the series “physchem”, `Nc1ccc(S(=O)(=O)Nc2ncccn2)cc1` [Sulfadiazine] registered a logD of -0.8. Turning to `CCN(CC)CCNC(=O)c1cc(S(C)(=O)=O)ccc1OC` [Tiapride], the “Catalepsy score compared to Vehicle-treated group (in words)” value in the series on female CD-1 mice was “significantly higher”.
